Test results: patent US10435399B2, “HDAC6 inhibitory heterocyclic compound” (TAKEDA PHARMACEUTICAL COMPANY LIMITED, priority 2017, dated 2019)

Each compound was assayed against T1, HDAC6 enzyme (Homo sapiens, UniProt Q9UBN7) (assay: HDAC6 enzyme inhibitory activity (HDAC-Glo I/II Assay kit)). Details: 10 μM; wells without enzyme = 100% inhibition; read-out: HDAC6 inhibitory rate (%) (10 μM).
T1 construct: transducing full length HDAC6 gene into Sf-9 insect cells; GST; purchased SignalChem; host or cells: Sf-9 insect cells
T1 sequence (Q9UBN7 1-1215): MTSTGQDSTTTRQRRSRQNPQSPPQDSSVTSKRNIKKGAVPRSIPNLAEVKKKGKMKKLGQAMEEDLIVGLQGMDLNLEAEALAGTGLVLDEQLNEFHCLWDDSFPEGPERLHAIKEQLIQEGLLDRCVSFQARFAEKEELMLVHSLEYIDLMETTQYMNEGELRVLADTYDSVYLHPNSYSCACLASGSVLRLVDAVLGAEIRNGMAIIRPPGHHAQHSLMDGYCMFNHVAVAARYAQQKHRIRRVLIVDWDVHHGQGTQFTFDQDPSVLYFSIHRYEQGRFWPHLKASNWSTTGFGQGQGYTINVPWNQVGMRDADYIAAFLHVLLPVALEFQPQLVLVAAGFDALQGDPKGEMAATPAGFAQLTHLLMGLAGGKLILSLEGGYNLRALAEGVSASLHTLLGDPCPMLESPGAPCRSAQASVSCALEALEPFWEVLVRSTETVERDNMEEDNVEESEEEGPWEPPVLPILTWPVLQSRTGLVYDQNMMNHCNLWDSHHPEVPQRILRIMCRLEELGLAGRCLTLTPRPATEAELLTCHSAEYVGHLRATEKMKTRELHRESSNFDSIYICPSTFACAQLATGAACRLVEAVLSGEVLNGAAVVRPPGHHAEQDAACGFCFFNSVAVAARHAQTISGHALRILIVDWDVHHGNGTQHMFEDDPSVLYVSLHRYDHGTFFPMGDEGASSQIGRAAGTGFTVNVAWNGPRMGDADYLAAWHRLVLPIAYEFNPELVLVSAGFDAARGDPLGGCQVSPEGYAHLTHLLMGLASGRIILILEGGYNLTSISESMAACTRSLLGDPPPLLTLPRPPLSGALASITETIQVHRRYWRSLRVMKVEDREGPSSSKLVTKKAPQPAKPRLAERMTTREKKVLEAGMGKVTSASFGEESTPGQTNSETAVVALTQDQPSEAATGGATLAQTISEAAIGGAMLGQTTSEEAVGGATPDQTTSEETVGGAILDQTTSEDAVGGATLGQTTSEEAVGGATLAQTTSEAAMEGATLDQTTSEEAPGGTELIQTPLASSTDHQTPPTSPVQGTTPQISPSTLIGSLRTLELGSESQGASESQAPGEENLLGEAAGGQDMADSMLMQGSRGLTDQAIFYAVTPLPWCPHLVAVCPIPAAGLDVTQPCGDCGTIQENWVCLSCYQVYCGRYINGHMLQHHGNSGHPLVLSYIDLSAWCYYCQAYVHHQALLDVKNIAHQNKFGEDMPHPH
Assay type: biochemical
Summary of the method: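 Sf-9-derived GST-purified full-length HDAC6 + cpd, 60 min RT, 24 mM Tris pH 7.5/0.6 mM glutathione/0.01% Tween-20; add HDAC-Glo substrate-developer, 20 min RT; luminescence. No-enzyme = 100% inhibition.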
An inhibition at 10 µM of 97% was found for O=C(N[C@@H]1CCCC[C@H]1N1Cc2ccc(-c3nnc(C(F)F)o3)cc2C1=O)C1CC(F)(F)C1 [Example 33, N-((1R,2R)-2-(6-(5-(difluoromethyl)-1,3,4-oxadiazol-2-yl)-1-oxo-1,3-dihydro-2H-isoindol-2-yl)cyclohexyl)-3,3-difluorocyclobutanecarboxamide] in this work.
An inhibition at 10 µM of 98% was found for CC(C)(C)OC(=O)N1CCCC[C@@H]1CN1Cc2ccc(-c3nnc(C(F)F)o3)cc2C1=O [Example 34, tert-butyl (2R)-2-((6-(5-(difluoromethyl)-1,3,4-oxadiazol-2-yl)-1-oxo-1,3-dihydro-2H-isoindol-2-yl)methyl)piperidine-1-carboxylate] in this work.
An inhibition at 10 µM of 97% was found for CC(C)(C)OC(=O)N1CCOC[C@@H]1CN1Cc2ccc(-c3nnc(C(F)F)o3)cc2C1=O [Example 35, tert-butyl (3S)-3-((6-(5-(difluoromethyl)-1,3,4-oxadiazol-2-yl)-1-oxo-1,3-dihydro-2H-isoindol-2-yl)methyl)morpholine-4-carboxylate] in this work.
An inhibition at 10 µM of 85% was found for O=C1c2cc(-c3nnc(C(F)F)o3)ccc2CN1C[C@H]1COCCN1 [Example 36, 6-(5-(difluoromethyl)-1,3,4-oxadiazol-2-yl)-2-((3S)-morpholin-3-ylmethyl)isoindolin-1-one] in this work.
An inhibition at 10 µM of 99% was found for O=C1CCCN1c1ccccc1N1Cc2ccc(-c3nnc(C(F)F)o3)cc2C1=O [Example 37, 6-(5-(difluoromethyl)-1,3,4-oxadiazol-2-yl)-2-(2-(2-oxopyrrolidin-1-yl)phenyl)isoindolin-1-one] in this work.
An inhibition at 10 µM of 91% was found for N[C@@H]1CCCC[C@H]1N1Cc2ccc(-c3nnc(C(F)F)o3)cc2C1=O [Example 38, 2-((1R,2R)-2-aminocyclohexyl)-6-(5-(difluoromethyl)-1,3,4-oxadiazol-2-yl)isoindolin-1-one] in this work.
An inhibition at 10 µM of 96% was found for CCCCC(=O)N[C@@H]1CCCC[C@H]1N1Cc2ccc(-c3nnc(C(F)F)o3)cc2C1=O [Example 39, N-((1R,2R)-2-(6-(5-(difluoromethyl)-1,3,4-oxadiazol-2-yl)-1-oxo-1,3-dihydro-2H-isoindol-2-yl)cyclohexyl)pentanamide] in this work.
An inhibition at 10 µM of 100% was found for CC(F)(F)C(=O)N[C@@H]1CCCC[C@H]1N1Cc2ccc(-c3nnc(C(F)F)o3)cc2C1=O [Example 40, N-((1R,2R)-2-(6-(5-(difluoromethyl)-1,3,4-oxadiazol-2-yl)-1-oxo-1,3-dihydro-2H-isoindol-2-yl)cyclohexyl)-2,2-difluoropropanamide] in this work.
An inhibition at 10 µM of 98% was found for O=C1c2cc(-c3nnc(C(F)F)o3)ccc2CN1C[C@H]1CCCCN1S(=O)(=O)C1CC1 [Example 41, 2-(((2R)-1-(cyclopropylsulfonyl)piperidin-2-yl)methyl)-6-(5-(difluoromethyl)-1,3,4-oxadiazol-2-yl)isoindolin-1-one] in this work.
An inhibition at 10 µM of 98% was found for O=C1c2cc(-c3nnc(C(F)F)o3)ccc2CN1C[C@H]1CCCCN1C(=O)C1CC1 [Example 42, 2-(((2R)-1-(cyclopropylcarbonyl)piperidin-2-yl)methyl)-6-(5-(difluoromethyl)-1,3,4-oxadiazol-2-yl)isoindolin-1-one] in this work.
An inhibition at 10 µM of 96% was found for CC(C)OC(=O)N1CCCC[C@@H]1CN1Cc2ccc(-c3nnc(C(F)F)o3)cc2C1=O [Example 43, isopropyl (2R)-2-((6-(5-(difluoromethyl)-1,3,4-oxadiazol-2-yl)-1-oxo-1,3-dihydro-2H-isoindol-2-yl)methyl)piperidine-1-carboxylate] in this work.
An inhibition at 10 µM of 100% was found for O=C1c2cc(-c3nnc(C(F)F)o3)ccc2CN1C[C@H]1COCCN1S(=O)(=O)C1CC1 [Example 44, 2-(((3S)-4-(cyclopropylsulfonyl)morpholin-3-yl)methyl)-6-(5-(difluoromethyl)-1,3,4-oxadiazol-2-yl)isoindolin-1-one] in this work.
An inhibition at 10 µM of 99% was found for O=C1c2cc(-c3nnc(C(F)F)o3)ccc2CN1C[C@H]1COCCN1C(=O)C1CC1 [Example 45, 2-(((3S)-4-(cyclopropylcarbonyl)morpholin-3-yl)methyl)-6-(5-(difluoromethyl)-1,3,4-oxadiazol-2-yl)isoindolin-1-one] in this work.
An inhibition at 10 µM of 97% was found for CC(C)OC(=O)N1CCOC[C@@H]1CN1Cc2ccc(-c3nnc(C(F)F)o3)cc2C1=O [Example 46, isopropyl (3S)-3-((6-(5-(difluoromethyl)-1,3,4-oxadiazol-2-yl)-1-oxo-1,3-dihydro-2H-isoindol-2-yl)methyl)morpholine-4-carboxylate] in this work.
An inhibition at 10 µM of 99% was found for O=C1c2cc(-c3nnc(C(F)F)o3)ccc2CN1C[C@H]1COCCN1C(=O)C1CCCC1 [Example 47] in this work.
An inhibition at 10 µM of 98% was found for COC(=O)N1CCOC[C@@H]1CN1Cc2ccc(-c3nnc(C(F)F)o3)cc2C1=O [Example 48, methyl (3S)-3-((6-(5-(difluoromethyl)-1,3,4-oxadiazol-2-yl)-1-oxo-1,3-dihydro-2H-isoindol-2-yl)methyl)morpholine-4-carboxylate] in this work.
An inhibition at 10 µM of 99% was found for Cc1ccc(S(=O)(=O)N2CCOC[C@@H]2CN2Cc3ccc(-c4nnc(C(F)F)o4)cc3C2=O)cc1 [Example 49, 6-(5-(difluoromethyl)-1,3,4-oxadiazol-2-yl)-2-(((3S)-4-((4-methylphenyl)sulfonyl)morpholin-3-yl)methyl)isoindolin-1-one] in this work.
An inhibition at 10 µM of 101% was found for CCCC(=O)N[C@@H]1CCCC[C@H]1N1Cc2ccc(-c3nnc(C(F)F)o3)cc2C1=O [Example 50, N-((1R,2R)-2-(6-(5-(difluoromethyl)-1,3,4-oxadiazol-2-yl)-1-oxo-1,3-dihydro-2H-isoindol-2-yl)cyclohexyl)butanamide] in this work.
An inhibition at 10 µM of 99% was found for CCCCCC(=O)N[C@@H]1CCCC[C@H]1N1Cc2ccc(-c3nnc(C(F)F)o3)cc2C1=O [Example 51, N-((1R,2R)-2-(6-(5-(difluoromethyl)-1,3,4-oxadiazol-2-yl)-1-oxo-1,3-dihydro-2H-isoindol-2-yl)cyclohexyl)hexanamide] in this work.
An inhibition at 10 µM of 96% was found for CCOC(=O)N[C@@H]1CCCC[C@H]1N1Cc2ccc(-c3nnc(C(F)F)o3)cc2C1=O [Example 52, ethyl ((1R,2R)-2-(6-(5-(difluoromethyl)-1,3,4-oxadiazol-2-yl)-1-oxo-1,3-dihydro-2H-isoindol-2-yl)cyclohexyl)carbamate] in this work.
An inhibition at 10 µM of 98% was found for O=C1c2cc(-c3nnc(C(F)F)o3)ccc2CN1[C@@H]1CCCC[C@H]1N1CCC2(CC2)C1=O [Example 53, 6-(5-(difluoromethyl)-1,3,4-oxadiazol-2-yl)-2-((1R,2R)-2-(4-oxo-5-azaspiro[2.4]hept-5-yl)cyclohexyl)isoindolin-1-one] in this work.
An inhibition at 10 µM of 98% was found for CCc1cc(CC)n([C@@H]2CCCC[C@H]2N2Cc3ccc(-c4nnc(C(F)F)o4)cc3C2=O)n1 [Example 54, 2-((1R,2R)-2-(3,5-diethyl-1H-pyrazol-1-yl)cyclohexyl)-6-(5-(difluoromethyl)-1,3,4-oxadiazol-2-yl)isoindolin-1-one] in this work.
An inhibition at 10 µM of 101% was found for O=C1c2cc(-c3nnc(C(F)F)o3)ccc2CN1[C@@H]1CCCC[C@H]1n1cc2ccccc2n1 [Example 55, 6-(5-(difluoromethyl)-1,3,4-oxadiazol-2-yl)-2-((1R,2R)-2-(2H-indazol-2-yl)cyclohexyl)isoindolin-1-one] in this work.
An inhibition at 10 µM of 92% was found for O=C1c2cc(-c3nnc(C(F)F)o3)ccc2CN1CC1CC1 [Example 56, 2-(cyclopropylmethyl)-6-(5-(difluoromethyl)-1,3,4-oxadiazol-2-yl)isoindolin-1-one] in this work.
An inhibition at 10 µM of 98% was found for O=C1c2cc(-c3nnc(C(F)F)o3)ccc2CN1Cc1ccccc1 [Example 58, 2-benzyl-6-(5-(difluoromethyl)-1,3,4-oxadiazol-2-yl)isoindolin-1-one] in this work.
An inhibition at 10 µM of 94% was found for O=C1c2cc(-c3nnc(C(F)F)o3)ccc2CN1Cc1ccc(C(F)(F)F)cc1 [Example 59, 6-(5-(difluoromethyl)-1,3,4-oxadiazol-2-yl)-2-(4-(trifluoromethyl)benzyl)isoindolin-1-one] in this work.
An inhibition at 10 µM of 96% was found for O=C1c2cc(-c3nnc(C(F)F)o3)ccc2CN1Cc1ccccn1 [Example 60, 6-(5-(difluoromethyl)-1,3,4-oxadiazol-2-yl)-2-(pyridin-2-ylmethyl)isoindolin-1-one] in this work.
